Measured values taken from article PMC7367369, “A small library of chalcones induce liver cancer cell death through Akt phosphorylation inhibition” (Scientific Reports, 2020).
Where two headings read alike, the source gives them in different places.

Columns and labels:
SNU475 = assay: NCI-60 sulforhodamine B (SRB) cytotoxicity assay, SNU475; format: cell-based, human; settings: Homo sapiens, SNU-475; SRB, 72 h, 2.5–40 μM, triplicate; read-out: IC50 SNU475
Method: (§1) The bioactivities of the synthesized chalcones were assessed on human liver cancer cell lines and on DPSCs with NCI-SRB assay in vitro. DPSCs used to asses the bioactivity of chalcones on untransformed control cells with the potential of hepatic lineage. […] We also included 5-Fluorouracil which is used in clinics for gastrointestinal cancers and Sorafenib. All results were normalized to DMSO negative control measurements. The experiment was performed in triplicate.
Well differentiated human primary liver cancer cell lines Huh7, HepG2 and Hep3B, and poorly differentiated Mahlavu, FOCUS and SNU475 HCC cells were cultured in Dulbecco’s Modified Eagle’s Standard (DMEM) medium supplemented with 10% Fetal Bovine Serum (FBS), 100 units/mL penicillin and 100 µg/mL streptomycin (Gibco, Invitrogen, Carlsbad, CA, USA). 0.1 mM nonessential amino acids (NEAA) which are specific to HCC cell lines also added to culture media. Cells were cultured in a 5% CO2 incubator at 37^∘C
(§2) Primary liver cancer cells Huh7, HepG2, Hep3B, Mahlavu, FOCUS, Snu475 along with hepatic progenitor Dental pulp stem cells were seeded into 96-well plates (1,000–3,000 HCC cell/well and 10,000 cells DPSC/well ) for 24 h. The cells were then treated with increasing concentrations of the chalcones ( 2.5-40μM ). DMSO (AppliChem Biochemica, Darmstadt, Germany) was used as negative control. The growth has stopped at the end of 72 h by fixing cold with 10% (v/v) trichloroacetic acid (Merck, Schuchardt, Germany). Cells were then stained with 0.4% (m/v) of sulforhodamine (Sigma-Aldrich, St. Louis, USA) in 1% acetic acid solution. […] All experiments were done in triplicate.

[1] = tested on: dental pulp stem cells (DPSC); assay: NCI-60 sulforhodamine B (SRB) cytotoxicity assay, dental pulp stem cells; format: cell-based, human; settings: Homo sapiens; SRB, 72 h, 2.5–40 μM, triplicate; untransformed control cells; read-out: IC50 DPSC
Method: as §1
Dental pulp stem cells (DPSCs) were isolated from anonymised unidentified healthy intact wisdom tooth. DPSCs were isolated within few hours upon wisdom teeth surgery from patients above 18 years old. All were informed about the procedures, and their consents were obtained. Teeth were broken carefully in order to reach the dental pulp area. […] Then, the cells were seeded onto flasks in 10ml DMEM-F12 media (Lonza) supplemented with 1% penicillin/streptomycin solution (Hyclone) and 15% FBS (Fetal Bovine Serum,Hyclone, Logan, UT, USA) and cultured in a 5% CO2 incubator at 37^∘C .
as §2

Huh7 = assay: Real-time cell electronic sensing (RT-CES) growth analysis, Huh7; format: cell-based; settings: Homo sapiens, Huh-7
Method: The selected 3 compounds were further analyzed with real-time cell electronic sensing (RT-CES) system to assess the real-time growth behavior of the cells treated with the compounds. Huh7 and Mahlavu liver cancer cells were treated with the selected chalcones and monitored with RT-CES. Results of the compounds were normalized to data of negative control DMSO.
Figure 2 Real-time cell growth analysis. Human liver cancer cells Huh7 (left panel) and Mahlavu (right panel) were treated with the selected compounds. Cell index measurements were obtained by RT-CES software. DMSO was used as negative control. (A) The growth inhibition values of the compounds were obtained by the normalization with DMSO. Experiments were performed in triplicate. (B) IC50 values calculated from RT-CES experiment data. TEXT PRINTED IN THE PICTURE: (B) 1: Huh7 24h: 3.7; Huh7 72h: 5.2; Mahlavu 24h: 1.2; Mahlavu 72h: 2.3 | (B) 9: Huh7 24h: 16.1; Huh7 72h: 11.5; Mahlavu 24h: 4.9; Mahlavu 72h: 6.8 | (B) 11: Huh7 24h: 8.7; Huh7 72h: 8.8; Mahlavu 24h: 4.9; Mahlavu 72h: 6.8 DOUBTS OF THE COPYIST ABOUT THIS PICTURE: Panel B table: the picture prints no measure and no unit for the values
Huh7 and Mahlavu cells were inoculated into the e-plate (1000–2000 cells/well). The attachment, spreading, and proliferation of the cells were monitored every 30 minutes using the Xcelligence® Real-Time Cell Analysis system (ACEA Biosciences Inc.) in a cell culture incubator. […] When cells reach to an cell index (CI) impedance values about 1.5 usually in 24 hours cells were treated with the chalcones 1, 9 and 11. DMSO was used as a negative control. Each experiment was repeated three times. The CI value was noted every 10 minutes for the first 24 hours and then every 30 minutes upon chalcone treatments. The cell inhibition rate calculated as follows (%)=[1-(CItreatedcells/CIDMSO)]×100 .

Mahlavu and Huh7 cells = assay: Cell cycle analysis (propidium iodide); format: cell-based, human; settings: Mahlavu and Huh7, IC50 concentrations, 72 h
Method: Human liver cancer cells Mahlavu and Huh7 were treated with the compounds according to the IC50 values obtained from RT-CES experiments or DMSO controls for 72hr. […] We further assessed the effects of the selected chalcones 1, 9, and 11 on the cell cycle progression analysis of liver cancer cells. Human liver cancer cells Mahlavu and Huh7 were treated with the compounds according to the IC50 values obtained from RT-CES for 72 h. Then the DNA in the treated cells were stained with propidium iodide and analyzed with fluorescent-activated cell sorter. […] In order to confirm the induction of apoptosis in human liver cancer cells treated with the chalcones, cleavage of PARP protein (marker of apoptosis) was investigated.
Figure 3 Cell death induced by the chalcones. (A) Nuclear staining of the liver cancer cells treated with the chalcones. Human liver cancer cells (Huh7 and Mahlavu) were treated with the IC50 concentrations of the chalcones 1, 9, 11. After 72 h of incubation with the compounds or DMSO control, Hoechst (33258) staining was performed. Images were taken with fluorescent microscope (×40). Due to the strong cytotoxic activities of the chalcones the number of the cells in objective area was much less than DMSO controls. (B) Cell cycle distribution of liver cancer cells. Huh7 and Mahlavu cells were treated for 72 h with IC50 concentrations of the compounds or DMSO control. SubG1 cell cycle arrest was observed upon treatment with the compounds (blue). (C) Investigation of PARP cleavage in Huh7 and Mahlavu cells treated with the selected chalcones for 24 h.
Then samples were stained with propidium iodide which binds to DNA and analyzed with MUSE® Cell Cycle Assay Kit (EMD Milipore).

[2] = Huh7, 24h, read-out: IC50 values calculated from RT-CES experiment data, Huh7 24h
[3] = Huh7, 72h, read-out: IC50 values calculated from RT-CES experiment data, Huh7 72h

Structure (SMILES) | IC50 (SNU475) [µM] | IC50 [1] [µM] | IC50 (Huh7; [2]) [µM] | IC50 (Huh7; [3]) [µM] | cell cycle progression (Mahlavu and Huh7 cells)
COc1ccc(C(=O)/C=C/c2cccc([N+](=O)[O-])c2)cc1 [compound 1] | 3 | > 40 | 3.7 | 5.2 | induced SubG1 cell cycle arrest
O=C(/C=C/c1ccccc1)c1ccccc1 [compound 9] | 5 | 25.7 | 16.1 | 11.5 | induced SubG1 cell cycle arrest
O=C(/C=C/c1ccc(Cl)cc1)c1ccccc1 [compound 11] | 9 | 19.1 | 8.7 | 8.8 | induced SubG1 cell cycle arrest
